From patent US5177106A, “4-amino substituted phenoxyalkyl carboxylic acid, ester, and alcohol derivatives as antihypercholesterolemic and antiatherosclerotic agents” (Warner-Lambert Company, priority 1991, dated 1993)
pIC50: −log10 of the molar value.

Tests used:
[1] = biological target: T1, acyl-CoA:cholesterol acyltransferase (ACAT) (Oryctolagus cuniculus, UniProt G1SFD9); assay: Inhibition of cholesterol esterification by acyl-CoA:cholesterol acyltransferase (ACAT), in vitro, rabbit intestinal microsomal fraction; format: biochemical; details: endogenous cholesterol and exogenous 14C-oleoyl-CoA, read-out: IC50 (concentration of test compound required to inhibit cholesteryl oleate formation to 50% of control)
T1 construct: rabbit intestinal microsomal fraction; from tissue; host or cells: rabbit intestine, microsomal fraction
T1 sequence (G1SFD9 1-524): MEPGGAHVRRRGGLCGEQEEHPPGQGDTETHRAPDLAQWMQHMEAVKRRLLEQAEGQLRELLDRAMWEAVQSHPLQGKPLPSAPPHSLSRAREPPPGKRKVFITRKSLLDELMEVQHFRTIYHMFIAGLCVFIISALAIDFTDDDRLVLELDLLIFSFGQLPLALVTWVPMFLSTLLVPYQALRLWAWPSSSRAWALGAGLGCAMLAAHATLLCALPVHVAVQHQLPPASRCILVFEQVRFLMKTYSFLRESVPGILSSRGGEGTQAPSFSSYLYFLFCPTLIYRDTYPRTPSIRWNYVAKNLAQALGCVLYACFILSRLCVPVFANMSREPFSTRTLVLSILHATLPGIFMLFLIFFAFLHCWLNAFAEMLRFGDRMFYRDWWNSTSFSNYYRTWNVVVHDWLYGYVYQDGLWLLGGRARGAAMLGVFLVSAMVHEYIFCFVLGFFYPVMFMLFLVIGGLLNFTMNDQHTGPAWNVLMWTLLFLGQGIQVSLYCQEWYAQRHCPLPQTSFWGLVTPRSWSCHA
Procedure: The compounds of the present invention were tested for their ability to inhibit the esterification of cholesterol by the enzyme acyl-CoA:cholesterol acyltransferase (ACAT). The data in the table below is expressed as IC50 values, i.e., the concentration of test compound required to inhibit cholesteryl oleate formation to 50% of control.
The in vitro test employed is more fully described in Field, F. J. and Salome, R. G., Biochemica et Biophysica Acta, Volume 712, pages 557-570 (1982). The assay evaluates the ability of a test compound to inhibit the esterification of cholesterol using endogenous cholesterol of a rabbit intestinal microsomal fraction and exogenous ^14 C-oleoyl-CoA as reactants.

[2] = Elevation of HDL by test drug relative to gemfibrozil (test procedure of U.S. Pat. No. 4,413,011); format: in vivo; details: ratio; 50 mg/kg test drug vs 50 mg/kg gemfibrozil; 1 = as effective as gemfibrozil
Procedure: Additionally, the elevation of HDL is reported in the table as a ratio of the elevation of HDL effected by a dose of 50 mg/kg of the test drug divided by the elevation of HDL effected by a 50 mg/kg dose of gemfibrozil which is used as a control in each experiment. [formula] Thus, a figure of 1 means that the test drug was as effective as gemfibrozil in elevating HDL. […] The test procedure is described in U.S. Pat. No. 4,413,011, which is herein incorporated by reference.

[3] = patients with elevated cholesterol levels; 5-year trial; cited from earlier work

pIC50 [1] | Structure (SMILES) | Δ HDL Test Compound / Δ HDL Gemfibrozil [2] | reduction of the rate of heart attack and sudden cardiac death [3] [%]
4.13 | CCCCCCCCCCCCCCCCS(=O)(=O)Nc1cc(C)c(OCCCC(C)(C)C(=O)OC)cc1C [Example 5, 5-[4-[(Hexadecylsulfonyl)amino]-2,5-dimethylphenoxy]-2,2-dimethylpentanoic acid, methyl ester] | 0.8 | –
4.55 | COC(=O)C(C)(C)CCCOc1cc(C)c(NC(=S)Nc2ccccc2)cc1C [Example 16, 5-[2,5-Dimethyl-4-[[(phenylamino)-thioxomethyl]amino]phenoxy]-2,2-dimethylpentanoic acid, methyl ester] | 0.9 | –
4.16 | COC(=O)C(C)(C)CCCOc1cc(C)c(NS(C)(=O)=O)cc1C [Example 12] | 1.5 | –
– | Cc1ccc(C)c(OCCCC(C)(C)C(=O)O)c1 [gemfibrozil] | – | 34
